From US12313625B2, “Living tissue model device, vascular wall model, vascular wall model device and method of evaluating test substance” (FUJIFILM CORPORATION, priority 2017, dated 2025)

Experiments:
[1] = tested on: VEC/SMC-HCM insert (HUVEC / HUASMC vascular wall model); conditions: histamine 10 μM or 100 μM, incubated 120 minutes, FIG. 10
Protocol: • (1) 2 mg of FITC-dextran 70 (70 kDa, Sigma) was dissolved in 8 ml of HBSS (+) (084-08965, Wako), to prepare a 250 μg/ml FITC-dextran 70 solution. The FITC-dextran 70 solution was stored in a light-shielded condition. […] The 96-well black plate was light-shielded by being covered with an aluminum sheet. • (9) The fluorescent intensity of the FITC in each sample liquid was measured using a plate reader (ENSPIRE, PerkinElmer) with an excitation wavelength (Ex) of 485 nm and an emission wavelength (Em) of 530 nm.

[2] = tested on: cell layered body of rat vascular endothelial cells and rat smooth muscle cells on HCM; assay: Evaluation of response to physiologically active substance (thrombin) by microscopy of the cell layered body; format: cell-based; conditions: 37° C., 30 minutes
Protocol: • (1) 0.1 mg (100 units) of thrombin (#T7009-100UN, Sigma) was dissolved in 100 μl of physiological saline to prepare a thrombin solution at a concentration of 1000 U/mL. […] The micrograph of the cell layered body is shown in FIG. 12, which is a superposed image of red fluorescence from VE-cadherin and green fluorescence from α-smooth muscle actin.

## NCCc1c[nH]cn1 [histamine, Histamine]
[1]
  FITC-dextran 70 permeability: increase in FITC-dextran 70 permeability depending on the concentration of histamine

## thrombin
[2]; 25 U/mL or 100 U/mL thrombin, FIG. 12
  cell contraction observed under a microscope: cell contraction due to activation of actin stress fibers caused by the addition of thrombin was observed
[2]; 25 U/mL vs 100 U/mL thrombin
  concentration dependence of cell contraction: Higher thrombin concentrations caused stronger cell contractions
